# Measurements from ChEMBL document CHEMBL1201862, “PubChem BioAssay data set” (2004).
# Active and inactive are the calls of the source.
# Key:
# Large T antigen = Large T antigen (Simian virus 40, UniProt P03070); type: functional, Betapolyomavirus macacae;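 note: Confirmatory-stage PubChem screen for compounds that inhibit SV40 T antigen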
# [1] = target: T1, RNA-binding protein pos-1 (Caenorhabditis elegans, UniProt G5EF15); assay: disruptors of C. elegans POS-1 RNA interaction – biochemical, fluorescence polarization, dose response (AID 1964);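 note: purified POS-1 fused to maltose binding protein made in E. coli; potency of compounds blocking POS-1 binding to fluorescent RNA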
# T1 sequence (G5EF15 whole entry): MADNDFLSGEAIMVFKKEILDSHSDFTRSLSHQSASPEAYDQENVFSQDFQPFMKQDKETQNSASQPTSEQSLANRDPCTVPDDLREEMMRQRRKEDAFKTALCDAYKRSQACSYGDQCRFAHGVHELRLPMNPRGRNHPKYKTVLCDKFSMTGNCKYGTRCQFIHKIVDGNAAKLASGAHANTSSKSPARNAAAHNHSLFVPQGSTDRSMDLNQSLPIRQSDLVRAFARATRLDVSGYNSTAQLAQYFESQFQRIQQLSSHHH
# [2] = target: T2, Zinc finger protein mex-5 (Caenorhabditis elegans, UniProt Q9XUB2); assay: potency of MEX-5 RNA-binding blockers – biochemical, C. elegans, fluorescence polarization, dose response (AID 1960)
# T2 sequence (Q9XUB2 whole entry): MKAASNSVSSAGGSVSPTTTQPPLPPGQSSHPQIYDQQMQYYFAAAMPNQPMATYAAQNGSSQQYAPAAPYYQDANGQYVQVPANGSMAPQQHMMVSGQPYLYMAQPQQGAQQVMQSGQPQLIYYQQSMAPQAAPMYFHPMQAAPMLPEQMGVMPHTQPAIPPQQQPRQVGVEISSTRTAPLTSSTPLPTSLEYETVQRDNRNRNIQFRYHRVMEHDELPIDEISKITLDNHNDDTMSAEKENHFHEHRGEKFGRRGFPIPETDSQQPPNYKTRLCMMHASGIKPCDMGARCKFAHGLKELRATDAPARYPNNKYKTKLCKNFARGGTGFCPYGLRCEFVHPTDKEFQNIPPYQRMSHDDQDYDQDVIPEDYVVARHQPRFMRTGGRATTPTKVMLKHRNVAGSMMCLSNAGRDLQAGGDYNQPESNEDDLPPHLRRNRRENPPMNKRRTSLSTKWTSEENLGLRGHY
# [3] = target: T3, Carboxy-terminal domain RNA polymerase II polypeptide A small phosphatase 1 (Homo sapiens, UniProt Q9GZU7); assay: CTDSP1 inhibitors, concentration-response, biochemical, absorbance readout, ultra-high-throughput screen actives (AID 540297); type: functional
# T3 sequence (Q9GZU7 whole entry): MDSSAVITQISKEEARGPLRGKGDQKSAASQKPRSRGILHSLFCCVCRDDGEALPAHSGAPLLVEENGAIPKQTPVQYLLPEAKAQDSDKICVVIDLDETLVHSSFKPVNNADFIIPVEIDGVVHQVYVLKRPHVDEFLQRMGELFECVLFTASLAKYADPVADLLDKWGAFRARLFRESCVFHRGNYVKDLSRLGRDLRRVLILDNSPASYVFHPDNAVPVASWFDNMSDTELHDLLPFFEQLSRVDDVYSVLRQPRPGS
# Protein skinhead-1 = target: T4, Protein skinhead-1 (Caenorhabditis elegans, UniProt P34707); type: functional
# T4 sequence (P34707 whole entry): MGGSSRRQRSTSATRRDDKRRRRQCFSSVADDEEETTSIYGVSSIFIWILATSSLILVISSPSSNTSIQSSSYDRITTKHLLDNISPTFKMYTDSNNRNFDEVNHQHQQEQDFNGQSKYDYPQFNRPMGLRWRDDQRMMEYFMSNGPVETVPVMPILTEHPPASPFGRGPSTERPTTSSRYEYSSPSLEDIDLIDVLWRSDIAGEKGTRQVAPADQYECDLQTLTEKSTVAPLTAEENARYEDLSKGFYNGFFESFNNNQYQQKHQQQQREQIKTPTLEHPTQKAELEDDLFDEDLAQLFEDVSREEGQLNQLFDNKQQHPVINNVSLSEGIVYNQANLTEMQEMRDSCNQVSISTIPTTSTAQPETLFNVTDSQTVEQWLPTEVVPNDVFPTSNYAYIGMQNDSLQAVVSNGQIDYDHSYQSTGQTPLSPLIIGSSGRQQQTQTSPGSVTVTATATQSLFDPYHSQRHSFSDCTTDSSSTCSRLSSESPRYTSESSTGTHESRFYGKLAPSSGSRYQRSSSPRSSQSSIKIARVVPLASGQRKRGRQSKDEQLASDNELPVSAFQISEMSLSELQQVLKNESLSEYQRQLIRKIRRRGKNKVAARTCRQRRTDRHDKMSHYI
# Streptokinase A = target: T5, Streptokinase A (Streptococcus pyogenes serotype M1, UniProt P10520); assay: viability-normalized secreted streptokinase activity reduction – plasminogen activation absorbance, OD405, dose response (AID 1914); type: functional, Streptococcus pyogenes M1 GAS;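 note: secreted streptokinase activity via plasminogen activation per viability signal from cell pellet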
# T5 sequence (P10520 whole entry): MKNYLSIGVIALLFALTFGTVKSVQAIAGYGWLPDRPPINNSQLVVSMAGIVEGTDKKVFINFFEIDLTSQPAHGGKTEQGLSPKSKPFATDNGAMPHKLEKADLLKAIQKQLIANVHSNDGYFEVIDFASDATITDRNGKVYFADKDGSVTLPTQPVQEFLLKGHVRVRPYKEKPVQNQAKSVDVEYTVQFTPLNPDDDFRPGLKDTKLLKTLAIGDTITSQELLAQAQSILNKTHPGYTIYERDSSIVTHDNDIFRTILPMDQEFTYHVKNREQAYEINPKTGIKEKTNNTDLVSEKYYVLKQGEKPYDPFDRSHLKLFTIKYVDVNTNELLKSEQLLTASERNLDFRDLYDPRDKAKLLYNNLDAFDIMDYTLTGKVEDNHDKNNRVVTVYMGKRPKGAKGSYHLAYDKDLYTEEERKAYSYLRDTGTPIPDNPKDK
# Streptococcus = assay: GAS UMAA2166 growth inhibition – luminescence, BacTiterGlo, counter-screen for streptokinase expression inhibitor project, dose response (AID 1915); type: functional, organism-based;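 note: potency for reduction of bacterial viability or growth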
# [4] = viability of HCT116 lacking mutant beta-catenin – cell-based, human colon tumor, dose response (AID 1045); type: functional;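 note: HCT116 colon tumor cells with beta catenin knocked out; cells exposed to compound for 60 hours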
# [5] = viability of PTEN-deleted HCT116 cells – cell-based, HCT116 PTEN knockout, dose response (AID 1047); type: functional;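 note: HCT116 colon tumor cells with PTEN knocked out; cells exposed to compound for 60 hours before readout; potency for loss of cell viability measured by luminescence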
# [6] = reduction of Shn3 3'UTR-driven luciferase in osteoblasts – cell-based, Clone20 osteoblasts, firefly luciferase, cherry-picked, dose response (AID 624132); type: functional;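 note: firefly luciferase luminescence from reporter carrying the Shn3 3'UTR in osteoblasts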
# [7] = loss of viability in HepG2 cells – cell-based, CellTiter-Glo, cherry-picked, cytotoxicity control for Shn3 inhibitor project, dose response (AID 624134); type: functional
# cells [8] = type: functional, cell-based
# cells [9] = type: functional, cell-based; remark: listed apart in the source
# INS1 = assay: INS-1E survival protection against cytokine death – cell-based, luminescence, retest, dose response (AID 449756); type: functional; details: Rattus norvegicus;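 note: cell death triggered by IL-1 beta plus TNF-alpha plus IFN-gamma mixture; protective hits raise ATP signal compared with cytokine alone wells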
# Large T antigen, sequence (P03070 whole entry, the tested form may be a part): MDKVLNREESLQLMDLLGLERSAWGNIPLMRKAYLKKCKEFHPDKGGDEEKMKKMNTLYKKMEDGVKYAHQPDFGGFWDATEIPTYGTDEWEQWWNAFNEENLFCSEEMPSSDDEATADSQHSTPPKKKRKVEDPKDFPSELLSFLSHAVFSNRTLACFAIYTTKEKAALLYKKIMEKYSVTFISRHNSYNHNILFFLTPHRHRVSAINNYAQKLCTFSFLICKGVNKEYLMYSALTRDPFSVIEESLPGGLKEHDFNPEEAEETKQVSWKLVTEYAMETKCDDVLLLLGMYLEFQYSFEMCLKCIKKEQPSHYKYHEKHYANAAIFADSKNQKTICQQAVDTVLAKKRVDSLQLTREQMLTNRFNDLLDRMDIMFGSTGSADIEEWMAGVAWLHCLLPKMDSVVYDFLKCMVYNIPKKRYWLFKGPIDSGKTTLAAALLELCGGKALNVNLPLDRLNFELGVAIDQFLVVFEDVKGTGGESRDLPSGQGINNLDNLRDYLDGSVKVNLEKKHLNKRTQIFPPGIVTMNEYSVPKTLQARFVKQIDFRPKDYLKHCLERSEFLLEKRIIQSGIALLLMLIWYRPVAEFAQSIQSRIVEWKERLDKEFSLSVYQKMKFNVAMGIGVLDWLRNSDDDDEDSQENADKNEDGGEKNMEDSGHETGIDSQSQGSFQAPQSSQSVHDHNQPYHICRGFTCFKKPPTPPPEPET
structure (smiles),measurement,setting,value
Cc1ccc(/C=C2\C(=O)NC(=S)N(c3cccc(F)c3)C2=O)o1,IC50,Large T antigen,36.7 µM (active)
same,EC50,[1],63.5 µM (active)
same,EC50,[2],44.6 µM (active)
COc1cc2cnc(-c3ccccc3)c(-c3cc(OC)c(OC)c(OC)c3)c2cc1OC,IC50,[3],67.2 µM (active)
O=C(Nc1cccc([N+](=O)[O-])c1)c1cnccn1,IC50,[3],5.88 µM (active)
COc1ccc(S(=O)(=O)NCCSC(C)(C)C)c(Cl)c1Cl,IC50,[3],8.61 µM (active)
CCCCNC(=O)COC(=O)c1cc(S(=O)(=O)N2CCCCCC2)ccc1OC,IC50,Protein skinhead-1,> 100 µM (inactive)
CN(C)c1nc(SCc2ccccc2Cl)nc2c1CCCC2,EC50,Streptokinase A,14 µM (active)
same,EC50,Streptococcus,> 150 µM (not active)
same,IC50,Protein skinhead-1,> 100 µM (inactive)
COc1ccc(NC2=NC(=S)N(c3ccc(C)cc3)C23CCCCC3)cc1,EC50,[4],2.47 µM (active)
same,EC50,[5],3.42 µM (active)
C=C1C(=O)O[C@H]2[C@H]1[C@H](OC(=O)CC(=O)O[C@@H]1C[C@@H](C)[C@@H]3C=CC(=O)[C@@]3(C)[C@H]3OC(=O)C(=C)[C@H]13)C[C@@H](C)[C@H]1C=CC(=O)[C@]12C,AC50,[6],1.54 µM (active)
same,IC50,Large T antigen,52 µM (active)
same,AC50,[7],> 70 µM (inactive)
O=C(O)c1cccc(S(=O)(=O)Nc2ccc3oc(=O)sc3c2)c1,IC50,Large T antigen,46.3 µM (active)
C=CCOCCN1C(=O)C2C3C=CC(C2C1=O)C1C2C(=O)N(CCOCC=C)C(=O)C2C31 (stereo not drawn),IC50,[3],19.9 µM (active)
N#Cc1ccsc1NC(=O)COC(=O)CCS(=O)(=O)c1ccccc1,IC50,[3],8.32 µM (active)
O=C(COC(=O)c1cccc(S(=O)(=O)N2CCOCC2)c1)Nc1ncc(C(F)(F)F)cc1Cl,EC50,cells [8],> 350 µM (not active)
same,EC50,cells [9],> 350 µM (not active)
same,IC50,Protein skinhead-1,> 100 µM (inactive)
COc1ccc(CC(=O)Nc2nnc(SCc3ccccc3)s2)cc1S(=O)(=O)N1CCOCC1,IC50,Protein skinhead-1,> 100 µM (inactive)
N=c1c2c(-c3ccccc3)c(-c3ccccc3)n(Cc3ccco3)c2ncn1CCO,EC50,[4],1.27 µM (active)
same,EC50,[5],1.15 µM (active)
CCn1c(SCC(=O)Nc2cc(C)on2)nc2sc3c(c2c1=O)CCCC3,EC50,[4],13.2 µM (active)
same,AC50,INS1,8.67 µM (active)
same,EC50,[5],6.49 µM (active)
Cc1cccc(N2C(=O)/C(=C/Nc3ccc(O)cc3)c3ccccc3C2=O)n1,IC50,Large T antigen,7.67 µM (active)
